Patent US20240308968A1, “FUNGICIDAL SUBSTITUTED HETEROCYCLES” (FMC Corporation, priority 2021, published 2024)

Key:
Type in all cases: in vivo
[1] = tested on: Zymoseptoria tritici; assay: Test A: preventive spray on wheat seedlings, wheat leaf blotch disease rating; conditions: 100 = 100% disease control, 0 = no control; for pest or weed control at 250 ppm / pest or weed control at 50 ppm: Zymoseptoria tritici, 456 h
Text: (§1) General protocol for preparing test suspensions for Tests A-F: the test compounds were first dissolved in acetone in an amount equal to 3% of the final volume and then suspended at the desired concentration (in ppm) in acetone and purified water (50/50 mix by volume) containing 50 to 250 ppm of the surfactant PEG400 (polyhydric alcohol esters). The resulting test suspensions were then used in Tests A-F.
The test solution was sprayed to the point of run-off on wheat seedlings. The following day the seedlings were inoculated with a spore suspension of Zymoseptoria tritici (the causal agent of wheat leaf blotch) and incubated in a saturated atmosphere at 24° C. for 48 h, and then moved to a growth chamber at 20° C. for 17 days, after which time disease ratings were made. […]

[2] = tested on: Puccinia recondita f. sp. Tritici; assay: Test B: preventive spray on wheat seedlings, wheat leaf rust disease rating; conditions: 100 = 100% disease control, 0 = no control; for pest or weed control at 250 ppm / pest or weed control at 50 ppm: Puccinia recondita, 192 h
Text: as §1
The test solution was sprayed to the point of run-off on wheat seedlings. The following day the seedlings were inoculated with a spore suspension of Puccinia recondita f. sp. Tritici (the causal agent of wheat leaf rust) and incubated in a saturated atmosphere at 20° C. for 24 h, and then moved to a growth chamber at 20° C. for 7 days, after which time disease ratings were made.
(§2) The test suspension was sprayed to the point of run-off on tomato seedlings. The following day the seedlings were inoculated with a spore suspension of Alternaria solani (the causal agent of tomato early blight) and incubated in a saturated atmosphere at 27° C. for 48 h, and then moved to a growth chamber at 20° C. for 3 days, after which time visual disease ratings were made. A rating of 100 indicates 100% disease control and a rating of 0 indicates no disease control (relative to the controls). A dash (-) indicates the compound was not tested.

[3] = tested on: Blumeria graminis f. sp. Tritici; assay: Test C: preventive spray on wheat seedlings, wheat powdery mildew disease rating; conditions: 100 = 100% disease control, 0 = no control; for pest or weed control at 250 ppm / pest or weed control at 50 ppm: Blumeria graminis, 192 h
Text: as §1
The test suspension was sprayed to the point of run-off on wheat seedlings. The following day the seedlings were inoculated with a spore dust of Blumeria graminis f. sp. Tritici, (also known as Erysiphe graminis f. sp. Tritici, the causal agent of wheat powdery mildew) and incubated in a growth chamber at 20° C. for 8 days, after which time visual disease ratings were made.
as §2

[4] = tested on: Phakopsora pachyrhizi; assay: Test D: preventive spray on soybean seedlings, Asian soybean rust disease rating; conditions: 100 = 100% disease control, 0 = no control; for pest or weed control at 250 ppm / pest or weed control at 50 ppm: Phakopsora pachyrhizi, 216 h
Text: as §1
The test solution was sprayed to the point of run-off on soybean seedlings. The following day the seedlings were inoculated with a spore suspension of Phakopsora pachyrhizi (the causal agent of Asian soybean rust) and incubated in a saturated atmosphere at 22° C. for 24 h and then moved to a growth chamber at 22° C. for 8 days, after which time visual disease ratings were made.
as §2

[5] = tested on: Botrytis cinerea; assay: Test E: preventive spray on tomato seedlings, tomato Botrytis disease rating; conditions: 100 = 100% disease control, 0 = no control; for pest or weed control at 250 ppm / pest or weed control at 50 ppm: Botrytis cinerea, 120 h
Text: as §1
The test suspension was sprayed to the point of run-off on tomato seedlings. The following day the seedlings were inoculated with a spore suspension of Botrytis cinerea (the causal agent of tomato Botrytis) and incubated in a saturated atmosphere at 20° C. for 48 h, and then moved to a growth chamber at 24° C. for 3 days, after which time visual disease ratings were made.
as §2

[6] = tested on: Alternaria solani; assay: Test F: preventive spray on tomato seedlings, tomato early blight disease rating; conditions: 100 = 100% disease control, 0 = no control; for pest or weed control at 250 ppm / pest or weed control at 50 ppm: Alternaria solani, 120 h
Text: as §1, §2

COC(=O)c1nn(-c2cc(OC)cc(OC)c2)c(-c2ccc(F)cc2F)c(C)c1=O [Compound 24]
Test A disease control rating ([1]; 50 ppm): 8% | Test B disease control rating ([2]; 50 ppm): 0% | Test C disease control rating ([3]; 50 ppm): 0% | Test D disease control rating ([4]; 50 ppm): 0% | Test E disease control rating ([5]; 50 ppm): 0% | Test F disease control rating ([6]; 50 ppm): 0%

COc1cc(OC)cc(-n2nc(CCl)c(=O)c(C)c2-c2ccc(F)cc2F)c1 [Compound 25]
Test A disease control rating ([1]; 50 ppm): 18% | Test B disease control rating ([2]; 50 ppm): 0% | Test C disease control rating ([3]; 50 ppm): 43% | Test D disease control rating ([4]; 50 ppm): 75% | Test E disease control rating ([5]; 50 ppm): 34% | Test F disease control rating ([6]; 50 ppm): 0%

COc1cc(OC)cc(-n2nc(CF)c(=O)c(C)c2-c2ccc(F)cc2F)c1 [Compound 26]
Test A disease control rating ([1]; 50 ppm): 100% | Test B disease control rating ([2]; 50 ppm): 100% | Test C disease control rating ([3]; 50 ppm): 98% | Test D disease control rating ([4]; 50 ppm): 99% | Test E disease control rating ([5]; 50 ppm): 98% | Test F disease control rating ([6]; 50 ppm): 99%

CCOC(=O)c1nn(-c2cc(OC)cc(OC)c2)c(-c2ccc(F)cc2F)c(C)c1=O [Compound 28, ethyl 6-(2,4-difluorophenyl)-1-(3,5-dimethoxyphenyl)-1,4-dihydro-5-methyl-4-oxo-3-pyridazinecarboxylate]
pest or weed control at 250 ppm ([1]; 250 ppm): 0% | pest or weed control at 250 ppm ([2]; 250 ppm): 83% | pest or weed control at 250 ppm ([3]; 250 ppm): 43% | pest or weed control at 250 ppm ([4]; 250 ppm): 0% | pest or weed control at 250 ppm ([5]; 250 ppm): 31% | pest or weed control at 250 ppm ([6]; 250 ppm): 0%

COc1cc(OC)c(Cl)c(-n2nc(CO)c(=O)c(C)c2-c2ccc(F)cc2F)c1 [Compound 30, 1-(2-chloro-3,5-dimethoxyphenyl)-6-(2,4-difluorophenyl)-3-(hydroxymethyl)-5-methyl-4(1H)-pyridazinone]
pest or weed control at 50 ppm ([1]; 50 ppm): 63% | pest or weed control at 50 ppm ([2]; 50 ppm): 100% | pest or weed control at 50 ppm ([3]; 50 ppm): 98% | pest or weed control at 50 ppm ([4]; 50 ppm): 92% | pest or weed control at 50 ppm ([5]; 50 ppm): 94% | pest or weed control at 50 ppm ([6]; 50 ppm): 99%

COc1cc(OC)cc(-n2nc(CC#N)c(=O)c(C)c2-c2ccc(F)cc2F)c1 [Compound 31]
Test A disease control rating ([1]; 50 ppm): 61% | Test B disease control rating ([2]; 50 ppm): 0% | Test C disease control rating ([3]; 50 ppm): 0% | Test D disease control rating ([4]; 50 ppm): 0% | Test E disease control rating ([5]; 50 ppm): 9% | Test F disease control rating ([6]; 50 ppm): 0%

COc1cc(-n2nc(CO)c(=O)c(C)c2-c2ccc(F)cc2F)cc(OC)c1Cl [Compound 32, 1-(4-chloro-3,5-dimethoxyphenyl)-6-(2,4-difluorophenyl)-3-(hydroxymethyl)-5-methyl-4(1H)-pyridazinone]
pest or weed control at 50 ppm ([1]; 50 ppm): 0% | pest or weed control at 50 ppm ([2]; 50 ppm): 0% | pest or weed control at 50 ppm ([3]; 50 ppm): 0% | pest or weed control at 50 ppm ([4]; 50 ppm): 25% | pest or weed control at 50 ppm ([5]; 50 ppm): 0% | pest or weed control at 50 ppm ([6]; 50 ppm): 0%

COc1cc(OC)c(Cl)c(-n2nc(C)c(=O)c(C)c2-c2ccc(F)cc2F)c1 [Compound 33, 1-(2-chloro-3,5-dimethoxyphenyl)-6-(2,4-difluorophenyl)-3,5-dimethyl-4(1H)-pyridazinone]
pest or weed control at 50 ppm ([1]; 50 ppm): 100% | pest or weed control at 50 ppm ([2]; 50 ppm): 100% | pest or weed control at 50 ppm ([3]; 50 ppm): 100% | pest or weed control at 50 ppm ([4]; 50 ppm): 100% | pest or weed control at 50 ppm ([5]; 50 ppm): 98% | pest or weed control at 50 ppm ([6]; 50 ppm): 94%

COc1cc(OC)cc(-n2c(-c3ccc(F)cc3Cl)cc(=O)n(C)c2=O)c1 [Compound 34, 6-(2-chloro-4-fluorophenyl)-1-(3,5-dimethoxyphenyl)-3-methyl-2,4(1H,3H)-pyrimidinedione]
pest or weed control at 250 ppm ([1]; 250 ppm): 25% | pest or weed control at 250 ppm ([2]; 250 ppm): 86% | pest or weed control at 250 ppm ([3]; 250 ppm): 0% | pest or weed control at 250 ppm ([4]; 250 ppm): 64% | pest or weed control at 250 ppm ([5]; 250 ppm): 63% | pest or weed control at 250 ppm ([6]; 250 ppm): 0%

COc1cc(OC)c(Cl)c(-n2c(-c3ccc(F)cc3Cl)c(Cl)c(=O)n(C)c2=O)c1 [Compound 35, 5-chloro-1-(2-chloro-3,5-dimethoxyphenyl)-6-(2-chloro-4-fluorophenyl)-3-methyl-2,4(1H,3H)-pyrimidinedione]
pest or weed control at 50 ppm ([1]; 50 ppm): 100% | pest or weed control at 50 ppm ([2]; 50 ppm): 100% | pest or weed control at 50 ppm ([3]; 50 ppm): 98% | pest or weed control at 50 ppm ([4]; 50 ppm): 91% | pest or weed control at 50 ppm ([5]; 50 ppm): 94% | pest or weed control at 50 ppm ([6]; 50 ppm): 0%

COc1cc(OC)c(Cl)c(-n2c(-c3ccc(F)cc3Cl)cc(=O)n(C)c2=O)c1 [Compound 36, 1-(2-chloro-3,5-dimethoxyphenyl)-6-(2-chloro-4-fluorophenyl)-3-methyl-2,4(1H,3H)-pyrimidinedione]
pest or weed control at 50 ppm ([1]; 50 ppm): 95% | pest or weed control at 50 ppm ([2]; 50 ppm): 100% | pest or weed control at 50 ppm ([3]; 50 ppm): 92% | pest or weed control at 50 ppm ([4]; 50 ppm): 89% | pest or weed control at 50 ppm ([5]; 50 ppm): 88% | pest or weed control at 50 ppm ([6]; 50 ppm): 0%

COc1cc(OC)c(Cl)c(-n2c(-c3ccc(F)cc3Cl)c(C)c(=O)n(C)c2=O)c1 [Compound 37, 1-(2-chloro-3,5-dimethoxyphenyl)-6-(2-chloro-4-fluorophenyl)-3,5-dimethyl-2,4(1H,3H)-pyrimidinedione]
pest or weed control at 50 ppm ([1]; 50 ppm): 100% | pest or weed control at 50 ppm ([2]; 50 ppm): 100% | pest or weed control at 50 ppm ([3]; 50 ppm): 98% | pest or weed control at 50 ppm ([4]; 50 ppm): 77% | pest or weed control at 50 ppm ([5]; 50 ppm): 95% | pest or weed control at 50 ppm ([6]; 50 ppm): 53%

COc1cc(OC)cc(-n2c(-c3ccc(F)cc3Cl)c(Cl)c(=O)n(C)c2=O)c1 [Compound 38, 5-chloro-6-(2-chloro-4-fluorophenyl)-1-(3,5-dimethoxyphenyl)-3-methyl-2,4(1H,3H)-pyrimidinedione]
pest or weed control at 50 ppm ([1]; 50 ppm): 0% | pest or weed control at 50 ppm ([2]; 50 ppm): 96% | pest or weed control at 50 ppm ([3]; 50 ppm): 0% | pest or weed control at 50 ppm ([4]; 50 ppm): 0% | pest or weed control at 50 ppm ([5]; 50 ppm): 70% | pest or weed control at 50 ppm ([6]; 50 ppm): 0%

COc1cc(OC)cc(-n2c(-c3ccc(F)cc3Cl)c(C)c(=O)n(C)c2=O)c1 [Compound 39, 6-(2-chloro-4-fluorophenyl)-1-(3,5-dimethoxyphenyl)-3,5-dimethyl-2,4(1H,3H)-pyrimidinedione]
pest or weed control at 50 ppm ([1]; 50 ppm): 0% | pest or weed control at 50 ppm ([2]; 50 ppm): 100% | pest or weed control at 50 ppm ([3]; 50 ppm): 98% | pest or weed control at 50 ppm ([4]; 50 ppm): 73% | pest or weed control at 50 ppm ([5]; 50 ppm): 90% | pest or weed control at 50 ppm ([6]; 50 ppm): 9%

COc1cc(OC)cc(-c2ncncc2-c2c(F)cc(F)cc2F)c1 [Compound 40]
Test A disease control rating ([1]; 250 ppm): 0% | Test B disease control rating ([2]; 250 ppm): 9% | Test C disease control rating ([3]; 250 ppm): 69% | Test D disease control rating ([4]; 250 ppm): 0% | Test E disease control rating ([5]; 250 ppm): 0% | Test F disease control rating ([6]; 250 ppm): 0%

COc1cc(OC)cc(-c2nc(C)ncc2-c2c(F)cc(F)cc2F)c1 [Compound 41]
Test A disease control rating ([1]; 250 ppm): 84% | Test B disease control rating ([2]; 250 ppm): 0% | Test C disease control rating ([3]; 250 ppm): 91% | Test D disease control rating ([4]; 250 ppm): 0% | Test E disease control rating ([5]; 250 ppm): 17% | Test F disease control rating ([6]; 250 ppm): 0%

COc1cc(OC)c(Cl)c(-c2nc(C)nc(C)c2-c2ccc(F)cc2Cl)c1 [Compound 42, 4-(2-chloro-3,5-dimethoxyphenyl)-5-(2-chloro-4-fluorophenyl)-2,6-dimethylpyrimidine]
pest or weed control at 250 ppm ([1]; 250 ppm): 96% | pest or weed control at 250 ppm ([2]; 250 ppm): 100% | pest or weed control at 250 ppm ([3]; 250 ppm): 100% | pest or weed control at 250 ppm ([4]; 250 ppm): 100% | pest or weed control at 250 ppm ([5]; 250 ppm): 99% | pest or weed control at 250 ppm ([6]; 250 ppm): 100%

Cc1ncnc(-c2ccc(F)cc2Cl)c1-c1ccc(F)cc1Cl [Compound 43]
Test A disease control rating ([1]; 250 ppm): 0% | Test B disease control rating ([2]; 250 ppm): 0% | Test C disease control rating ([3]; 250 ppm): 0% | Test D disease control rating ([4]; 250 ppm): 78% | Test E disease control rating ([5]; 250 ppm): 0% | Test F disease control rating ([6]; 250 ppm): 0%
